In brackets after ≈: the same amount, converted by molar mass. Activity calls are given as the source filed them. No cut-off for these calls is given here.
Experiments:
[1] = test system: Staphylococcus epidermidis; test: Antibacterial activity against Staphylococcus epidermidis ATCC 14990 assessed as inhibition of bacterial growth incubated for 24 hrs by microtiter plate reader analysis; assay type: functional
[2] = test system: Pseudomonas aeruginosa; test: Antibacterial activity against Pseudomonas aeruginosa ATCC 47085 assessed as inhibition of bacterial growth incubated for 24 hrs by microtiter plate reader analysis; assay type: functional
[3] = test system: A549; test: Antiproliferative activity against human A549 cells assessed as inhibition of cell growth incubated for 72 hrs by CCK-8 assay; assay type: functional, cell-based; conditions: A549, 72 h
[4] = test system: NCI-H1299; test: Antiproliferative activity against human NCI-H1299 cells assessed as inhibition of cell growth incubated for 72 hrs by CCK-8 assay; assay type: functional, cell-based; conditions: NCI-H1299, 72 h
[5] = test system: Staphylococcus aureus; test: Antibacterial activity against Staphylococcus aureus ATCC 25923 assessed as inhibition of bacterial growth incubated for 24 hrs by microtiter plate reader analysis; assay type: functional
[6] = test system: SW480; test: Antiproliferative activity against human SW480 cells assessed as inhibition of cell growth incubated for 72 hrs by CCK-8 assay; assay type: functional, cell-based; conditions: SW480, 72 h
[7] = test system: SW1990; test: Antiproliferative activity against human SW1990 cells assessed as inhibition of cell growth incubated for 72 hrs by CCK-8 assay; assay type: functional, cell-based; conditions: SW1990, 72 h
[8] = test system: SW480; test: Induction of apoptosis in human SW480 cells assessed as increase in annexin V/PI positive cells incubated for 24 hrs by annexin V-FITC/PI staining based flow cytometry analysis; assay type: functional, cell-based; conditions: dose 0-2.5 µM
[9] = test system: SW480; test: Inhibition of colony formation in human SW480 cells assessed as reduction in number of clonogenic cells at 0 to 2.5 uM incubated for 24 hrs followed by replacement with fresh medium and measured after 24 hrs by crystal violet staining based analysis; assay type: functional, cell-based; conditions: dose 0-2.5 µM

| MIC [1] | MIC [2] | IC50 [3] | IC50 [4] | MIC [5] | IC50 [6] | IC50 [7] | SMILES | Activity [8] | inhibition [9] |
| --- | --- | --- | --- | --- | --- | --- | --- | --- | --- |
| > 180 µg/mL | > 180 µg/mL | 2700 nM | 3000 nM | 23 µg/mL (≈ 12.8 µM) | 1500 nM | 1500 nM | CC[C@@](C)(NC(=O)[C@H](C)NC(=O)[C@H](C)NC(=O)C(C)(C)NC(C)=O)C(=O)N[C@](C)(CC)C(=O)N[C@@H](CCC(N)=O)C(=O)N[C@](C)(CC)C(=O)N[C@H](C(=O)NC(C)(C)C(=O)NCC(=O)N[C@@H](CC(C)C)C(=O)NC(C)(C)C(=O)N1CCC[C@H]1C(=O)N[C@@H](CC(C)C)C(=O)NC(C)(C)C(=O)NC(C)(C)C(=O)N[C@@H](CCC(N)=O)C(=O)N[C@H](CO)Cc1ccccc1)C(C)C | – | – |
| 90 µg/mL (≈ 49.7 µM) | > 180 µg/mL | 2600 nM | 3200 nM | 23 µg/mL (≈ 12.7 µM) | 1100 nM | 1100 nM | CC[C@@](C)(NC(=O)[C@H](C)NC(=O)[C@H](CO)NC(=O)C(C)(C)NC(C)=O)C(=O)N[C@](C)(CC)C(=O)N[C@@H](CCC(N)=O)C(=O)N[C@](C)(CC)C(=O)N[C@H](C(=O)NC(C)(C)C(=O)NCC(=O)N[C@@H](CC(C)C)C(=O)NC(C)(C)C(=O)N1CCC[C@H]1C(=O)N[C@@H](CC(C)C)C(=O)NC(C)(C)C(=O)NC(C)(C)C(=O)N[C@@H](CCC(N)=O)C(=O)N[C@H](CO)Cc1ccccc1)C(C)C | – | – |
| > 180 µg/mL | > 180 µg/mL | 1300 nM | 1300 nM | 45 µg/mL (≈ 25.3 µM) | 460 nM | 460 nM | CC[C@@](C)(NC(=O)[C@H](C)NC(=O)[C@H](C)NC(=O)C(C)(C)NC(C)=O)C(=O)N[C@](C)(CC)C(=O)N[C@@H](CCC(N)=O)C(=O)NC(C)(C)C(=O)N[C@H](C(=O)NC(C)(C)C(=O)NCC(=O)N[C@@H](CC(C)C)C(=O)NC(C)(C)C(=O)N1CCC[C@H]1C(=O)N[C@@H](CC(C)C)C(=O)NC(C)(C)C(=O)NC(C)(C)C(=O)N[C@@H](CCC(N)=O)C(=O)N[C@H](CO)Cc1ccccc1)C(C)C | Active | Active |
| 90 µg/mL (≈ 50.6 µM) | > 180 µg/mL | 2800 nM | 4000 nM | 23 µg/mL (≈ 12.9 µM) | 1200 nM | 1200 nM | CC[C@@](C)(NC(=O)[C@H](CCC(N)=O)NC(=O)[C@@](C)(CC)NC(=O)C(C)(C)NC(=O)[C@H](C)NC(=O)[C@H](C)NC(=O)C(C)(C)NC(C)=O)C(=O)N[C@H](C(=O)NC(C)(C)C(=O)NCC(=O)N[C@@H](CC(C)C)C(=O)NC(C)(C)C(=O)N1CCC[C@H]1C(=O)N[C@@H](CC(C)C)C(=O)NC(C)(C)C(=O)NC(C)(C)C(=O)N[C@@H](CCC(N)=O)C(=O)N[C@H](CO)Cc1ccccc1)C(C)C | – | – |
| > 180 µg/mL | > 180 µg/mL | 2700 nM | 4700 nM | 45 µg/mL (≈ 25.5 µM) | 900 nM | 900 nM | CC[C@@](C)(NC(=O)C(C)(C)NC(=O)[C@H](C)NC(=O)[C@H](C)NC(=O)C(C)(C)NC(C)=O)C(=O)N[C@@H](CCC(N)=O)C(=O)NC(C)(C)C(=O)N[C@H](C(=O)NC(C)(C)C(=O)NCC(=O)N[C@@H](CC(C)C)C(=O)NC(C)(C)C(=O)N1CCC[C@H]1C(=O)N[C@@H](CC(C)C)C(=O)NC(C)(C)C(=O)NC(C)(C)C(=O)N[C@@H](CCC(N)=O)C(=O)N[C@H](CO)Cc1ccccc1)C(C)C | – | – |
| > 180 µg/mL | > 180 µg/mL | 2800 nM | 2900 nM | 45 µg/mL (≈ 24.7 µM) | 960 nM | 960 nM | CC[C@@H](C)[C@H](NC(=O)[C@@](C)(CC)NC(=O)[C@H](CCC(N)=O)NC(=O)[C@@](C)(CC)NC(=O)[C@@](C)(CC)NC(=O)[C@H](C)NC(=O)[C@H](CO)NC(=O)C(C)(C)NC(C)=O)C(=O)NC(C)(C)C(=O)NCC(=O)N[C@@H](CC(C)C)C(=O)NC(C)(C)C(=O)N1CCC[C@H]1C(=O)N[C@@H](CC(C)C)C(=O)NC(C)(C)C(=O)NC(C)(C)C(=O)N[C@@H](CCC(N)=O)C(=O)N[C@H](CO)Cc1ccccc1 | – | – |
| 90 µg/mL (≈ 49.9 µM) | > 180 µg/mL | 2500 nM | 3400 nM | 23 µg/mL (≈ 12.7 µM) | 880 nM | 1300 nM | CC[C@@](C)(NC(=O)C(C)(C)NC(=O)[C@H](C)NC(=O)[C@H](C)NC(=O)C(C)(C)NC(C)=O)C(=O)N[C@@H](CCC(N)=O)C(=O)NC(C)(C)C(=O)N[C@H](C(=O)NC(C)(C)C(=O)NCC(=O)N[C@@H](CC(C)C)C(=O)NC(C)(C)C(=O)N1CCC[C@H]1C(=O)N[C@@H](CC(C)C)C(=O)NC(C)(C)C(=O)NC(C)(C)C(=O)N[C@@H](CCC(N)=O)C(=O)N[C@H](CO)Cc1c[nH]c2ccccc12)C(C)C | – | – |

| SMILES | MIC [1] | MIC [2] | IC50 [3] | IC50 [4] | MIC [5] | IC50 [6] | IC50 [7] | Activity [8] | inhibition [9] |
| --- | --- | --- | --- | --- | --- | --- | --- | --- | --- |
| O=C(N[C@H](CO)[C@H](O)c1ccc([N+](=O)[O-])cc1)C(Cl)Cl [CHLORAMPHENICOL] | 1.6 µg/mL (≈ 4.95 µM) | > 180 µg/mL | – | – | 3.1 µg/mL (≈ 9.59 µM) | – | – | – | – |
